Assay results reported in BindingDB's records for doi:10.1021/bi9005896 (Albert Einstein College of Medicine, 2009).

Target: T1, Purine nucleoside phosphorylase (Homo sapiens, UniProt P00491)
T1 sequence (P00491 whole entry): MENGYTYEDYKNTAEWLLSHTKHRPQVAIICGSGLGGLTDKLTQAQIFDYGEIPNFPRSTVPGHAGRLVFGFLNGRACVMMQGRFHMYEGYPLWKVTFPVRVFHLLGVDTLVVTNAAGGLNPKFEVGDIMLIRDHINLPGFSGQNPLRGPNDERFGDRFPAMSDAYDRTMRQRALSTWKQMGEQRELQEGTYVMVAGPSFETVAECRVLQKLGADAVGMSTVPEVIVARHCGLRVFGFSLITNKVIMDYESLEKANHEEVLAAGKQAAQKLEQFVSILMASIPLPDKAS
Experiment: Inhibtion Assay
From the text: Inhibition assay using human PNP.

Kd: 0.383 nM
Structure (SMILES): O=c1[nH]cnc2c(CN3CCC(O)C3)c[nH]c12 (stereo unspecified) [Immucillins, 11]
